Measurements published in patent EP1060182B1, “NOVEL PRODRUGS FOR PHOSPHORUS-CONTAINING COMPOUNDS” (Metabasis Therapeutics, Inc., priority 1998, dated 1999).
Where “and” joins values, the source holds several entries; their conditions need not be identical. Identical values can stand only once. Entries after “also recorded” stand apart in the source; their conditions may differ. Like-named read-outs stand apart in the source and are kept apart here.

Key:
[1] = tested on: microsomal fraction of human liver; assay: Activation by human liver microsomes (Example E); assay type: in vitro ADME
Protocol: 7.1, 1.3, and 30.1 were tested for conversion to their respective parent compounds by the microsomal fraction of human liver.

[2] = Delivery of parent compound to liver after intraperitoneal prodrug (Example U); assay type: in vivo, rat; details: 1.3 at 50 mg/kg i.p.; the last time point measured
Protocol: Methods: 1.3 was dissolved in DMSO and administered intraperitoneally to fasted rats at a dose of 50 mg/kg. At various time points following drug administration, animals were anesthetized with halothane. The peritoneal cavity was then opened and a blood sample was obtained from the abdominal vena cava and the liver freeze-clamped and excised. Blood and liver samples were processed as described in Example P and analyzed for 6-Amino-9-neopentyl-8-(2-phosphonofuranyl)purine content as described in Example I.

[3] = tested on: glucose production in isolated rat hepatocytes; assay: Inhibition of glucose production in rat hepatocytes (Example J); assay type: cell-based; details: Rattus norvegicus, Hepatocyte; 1 hour, lactate 10 mM / pyruvate 1 mM
Protocol: Select prodrugs of FBPase inhibitors were tested for inhibition of glucose production in isolated rat hepatocytes.
After a 10 minute equilibration period, lactate and pyruvate were added to 10 mM and 1 mM concentrations, respectively. Addition of gluconeogenic substrates was immediately followed by that of appropriate concentrations of test compound. After 1 hour, an aliquot (0.25 ml) was removed, transferred to an Eppendorf tube and centrifuged. The supernatant (50 µl) was then assayed for glucose content using a Glucose Oxidase kit (Sigma Chemical Co.) as per the manufacturer's instructions.

[4] = Stability in plasma (Example C); assay type: in vitro ADME, rat; details: 37°C, 5-8 hours, reverse phase HPLC
Method: Methods: Compounds were incubated in plasma at 37°C, and aliqouts removed at appropriate time points over the course of 5-8 hours. The aliquots were extracted with 1.5 volumes of methanol and clarified by centrifugation. Supernatants were then evaporated to dryness and the residues reconstituted with 100 µL of isotonic saline and then analyzed by reverse phase HPLC.

isolated rat hepatocytes [5] = assay: Activation to parent compound in isolated rat hepatocytes (Example I); assay type: cell-based; details: 100 µM prodrug
Text: An ODS column was used for analysis. […] Detection was at 310 nm.

[6] = Chemical stability in isotonic saline and phosphate buffer (Example A); assay type: physicochemical
[7] = Oral bioavailability by urinary excretion method (Example M); assay type: in vivo; details: rat, urine, parent compound, read-out: % OBAV Parent
Method: The oral bioavailability of prodrugs of a variety ofphosphonic acid FBPase inhibitors was estimated by a urinary excretion method in rat.
The quantity of parent compound excreted into urine was determined by HPLC analysis. An ODS column eluted with a gradient from potassium phosphate buffer, pH 5.5 to acetonitrile was employed for these measurements. Detection was at 310-325 nm.

isolated rat hepatocytes [8] = assay: Active drug metabolites formed after prodrug activation in isolated rat hepatocytes (Example K); details: Dose 100 µM, time point 2h
Method: Methods: Hepatocytes were prepared and incubated as described in Example I. 28.4 and 30.1 and their respective parent compounds, PMEA and ara-AMP, were dissolved in DMSO or methanol to yield 10 mM stock solutions, and then diluted into the cell suspension to yield a final concentration of 100 µM. At appropriate time points over the course of 2-4 hours, aliquots of the cell suspension were removed and spun through a silicon/mineral oil layer into 10% perchloric acid. The cell extracts in the acid layers were neutralized by the addition of 0.3 volumes of 3M KOH/3M KHCO3, and the extract was then centrifuged, filtered (0.2 micron filter) and loaded onto an anion exchange HPLC column equilibrated with 70% A (10 mM ammonium phosphate pH 3.5, 6% ETOH) and 30% B (1 M ammonium phosphate pH 3.5, 6% ETOH). Ara-ATP and PMEApp were eluted with a gradient to 80% B. Detection was at 254 nm.

[9] = Liver ara-ATP and plasma/urine ara-hypoxanthine after intravenous dosing (Example O); assay type: in vivo, rat
Protocol: The temporal profile of ara-hypoxanthine and ara-ATP generation following intravenous administration of 30.1 and free ara-AMP was compared in the rat.
Method: 30.1 and ara-AMP (Sigma) were administered to normal, fasted rats intravenously (in saline) via tail vein catheters. At appropriate time points following drug a administration, animals were lightly anesthetized with halothane. The peritoneal cavity was then opened and a blood sample was obtained from the abdominal vena cava and the liver freeze-clamped and excised.
The blood samples were heparinized and plasma was prepared. Plasma samples (100 µL) were mixed with 4 N perchloric acid (40 µL), vortexed, and then clarified by centrifugation. The supernatants were analyzed for ara-hypoxanthine by HPLC with use of a Beckman Ultrasphere ODS column (4.6 x 150 mm). The column was eluted with 100 mM acetic acid at a flow rate of 1.0 mL/min. The eluent was monitored by UV absorbance at 254 nm.
Livers were immediately homogenized in 3 volumes of 10% perchloric acid (w/w), and the extracts clarified by centrifugation at 2500 x g (5 minutes). The resulting supernatants were removed and neutralized with 0.3 volumes of 3M KOH/ 3M KHCO3. The neutralized liver extracts were then spun in an Eppendorf microfuge at 10,000 rpm (20 minutes, 4°C). The supernatants were analyzed for ara-ATP content by reverse phase HPLC (HP1050) using a Whatman Partisphere SA column (4.6 x 125 mm). A gradient from 0.3M ammonium phosphate buffer pH 3.5 to 0.8M ammonium phosphate pH 3.5 was run (1 ml/minute flow rate).
Renal excretion of araH following i.v. administration of 30.1 or ara-AMP was determined as described in Example Q.

human liver microsomes = assay: Identification of the p450 isozyme involved in activation, with specific p450 inhibitors (Example F); assay type: in vitro ADME; details: 250 µM prodrug, ketoconazole, furafylline, sulfaphenazole as inhibitors
Protocol: Reactions were stopped by addition of methanol to a concentration of 60%, filtered (0.2 µM filter), and lyophilized. Samples were resuspended in HPLC buffer (10 mM phosphate pH 5.5, 2.5 mM octyl-triethyl-ammonium), loaded onto a YMC C8 HPLC column (250 x 4.6 mm), and eluted with a methanol gradient to 80%.

recombinant CYP3A4 = assay: Activation by recombinant CYP3A4 (Example G); assay type: in vitro ADME; details: 30.1 at 250 µM, 37°C, NADPH dependent, linear for 30 minutes
Protocol: Activation of 30.1 and 28.4 was evaluated in reactions containing microsomes from baculovirus-infected insect cells co-expressing recombinant CYP3A4 and cytochrome p450 reductase (Panvera Corp., Madison, WI).
Methods: Reaction mixture composition was similar to that described in Example E. Reactions were terminated by addition of methanol to a final concentration of 60%, and products typically analyzed by HPLC with use of a YMC reverse phase C8 column (250 x 4.6 mm). […] The effluent was monitored at 254 nm.

[10] = Activation in tissue homogenates, tissue distribution (Example T); assay type: in vitro ADME, rat; details: liver cytosol, which does not contain microsomes
Protocol: 30.1 is tested for activation in homogenates from various tissues to assess the specificity of liver activation.
Methods: Rats are anaesthetized under halothane and tissues including liver, kidney, brain , heart, stomach, spleen, muscle, lung, and testis are excised and frozen in liquid nitrogen. Tissues are then homogenized in 1 to 3 volumes of 50 mM Tris/HCl, 154 mM KCl, 1 mM EGTA pH 7.4. The homogenate is centrifuged at 10,000 rpm and 4°C for 30 minutes and the supernatant recovered. Liver cytosol is prepared by centrifuging the liver crude extract for 1 hour at 40,000 rpm and 4°C. Reaction mixtures consist of 50 mM KH2PO4 pH 7.4, 13 mM glucose-6-phosphate, 2 mM NADP^+, 10 units of glucose-6-phosphate dehydrogenase, 100 µM 30.1 and tissue homogenate at a protein concentration of 8.5 mg/ml. Reactions are incubated at 37°C. Aliquots are taken after 0 and 1 hour of incubation, and extracted with 60 % methanol. The methanolic extracts are centrifuged at 14,000 rpm, and filtered prior to analysis by HPLC. The samples are loaded onto a YMC C8 column equilibrated with 0.1% TFA and eluted with a methanol gradient to 80%. The activation of 30.1 to ara-AMP is monitored at […]

[11] = Pharmacokinetics of 30.1 after intravenous dosing (Example N); assay type: in vivo, rat; details: for half-life: 20 mg/kg
Protocol: The pharmacokinetics of 30.1 were evaluated in the rat.
Methods: 30.1 was administered at 20 mg/kg to fasted rats via the tail vein under light halothane anesthesia. At apropriate time points following drug administration, rats were re-anesthetized with halothane. The peritoneal cavity was then opened and a blood sample was obtained from the abdominal vena cava and the liver freeze-clamped and excised. Blood samples were briefly centrifuged and the plasma fraction was then extracted with 1.5 volumes of methanol, processed, and analyzed by HPLC as described in Example A. Liver samples were excised, frozed in liquid nitrogen, and then homogenized in 100% methanol. Liver extracts were then centrifuged at 14,000 rpm and the methanolic supernatants subsequently filtered and evaporated to dryness. Samples were resuspended in isotonic saline and analyzed by HPLC as described in Example A. Pharmacokinetic parameters were determined with the aid of WinNonLin version 1:1 (Scientific Consulting, Inc.) software. Renal excretions studies were performed as described in Example Q.

[12] = Preliminary 22-day toxicological evaluation, intraperitoneal (Example R); assay type: in vivo, mouse; details: i.p. 10 and 100 mg/kg b.i.d. for 22 days, doses up to 200 mg/kg/d
Text: Death and other obvious signs of toxicity such as weight loss, tremors, ruffling fur, hunching, prostration, diarrhea, lethargy, and hyperactivity were monitored.

CC(C)(C)Cn1c(-c2ccc(P3(=O)OC4CC(O)CC(C4)O3)o2)nc2c(N)ncnc21 (single isomer, unassigned) [Compound 1.3, 6-Amino-8-(5'-hydroxyl-1',3' cyclohexyl)phosphonofuranyl-9-neopentyl purine]
rate of formation of parent compound ([1]; 250 µM prodrug, 37°C, NADPH-generating system): 0.55 nmoles/mg microsomal protein/minute | persistence of 6-Amino-9-neopentyl-8-(2-phosphonofuranyl)purine in plasma and liver [2]: 4 h | IC50 [3]: 13 µM | metabolism / degradation in fresh rat plasma [4]: no evidence of metabolism | intrahepatocyte levels of parent compound 6-Amino-9-neopenhyl-8-(2-phosphonofuranyl)purine (isolated rat hepatocytes [5]): similarly high levels | stability of 1.3 ([6]; 100 µM in phosphate buffer pH 7.4, 1 hour at room temperature): fully stable

CC(C)Cn1c(-c2ccc(P(=O)(O)O)o2)nc2ccc(Cl)cc21 [6-Chloro-1-isobutyl-2-(2-phosphono-5-furanyl) benzimidazole]
bioavailability at 24 h [7]: 0.5%

Nc1ncnc2c1ncn2[C@@H]1O[C@H](COP2(=O)OCCC(c3ccncc3)O2)[C@@H](O)[C@@H]1O (stereo partly drawn) [Compound 30.1, Adenine-9-beta-D-arabinofuranoside-5'-[1-(4-pyridyl)-1,3-propyl]monophosphate]
reaction rate for the formation of ara-AMP ([1]; 250 µM 30.1, 37°C, human liver microsomes): 0.12 nmoles/min/mg of microsomal protein | Product concentration nmoles/g cells (ara-ATP) (isolated rat hepatocytes [8]): 108±4 nmoles/g cells | metabolism / degradation in fresh rat plasma [4]: not degraded; also recorded: no evidence of metabolism | amount of araATP per gram of liver over time (Figure 1A) ([9]; 30.1 i.v. 10 and 3 mg/kg vs araAMP 10 mg/kg): Significantly higher liver levels | ara-hypoxanthine in urine ([9]; i.v. 30.1): Nor was ara-hypoxanthine detected in urine | ara-hypoxanthine (araH) in plasma ([9]; i.v., 30.1 at 10 and 3 mg/kg, ara-AMP at equivalent doses): virtually no araH; also recorded: not detected | liver levels of araATP relative to araA or araAMP ([9]; i.v., summary statements of Example O): 2-5 fold and 2- to 5 fold | primary p450 isoform responsible for activation in human liver (human liver microsomes): CYP3A4 | rate of formation of ara-AMP (recombinant CYP3A4): 3.3 ± 0.5 nmoles/ min/ nmole CYP3A4 | activation of 30.1 to ara-AMP [10]: does not result in activation | concentration of prodrug observed in liver ([11]; 20 mg/kg i.v., at 20 minutes): ~ 20 nmoles/g | half-life ([11]; rat, liver, iv, 20 mg/kg i.v., read-out: liver half life (converted)): 54 min | half-life ([11]; rat, plasma, iv, 20 mg/kg i.v., read-out: plasma half life (converted)): 11.4 min | half-life ([11]; rat, plasma, iv, 30.1 in rat, restated in Example S, read-out: plasma half-life): 12 min | clearance ([11]; rat, plasma, iv, 20 mg/kg i.v.): 55.7 mL/min/kg | MRT ([11]; rat, plasma, iv, 20 mg/kg i.v., read-out: mean residence time): 12.6 min | Vd ([11]; rat, plasma, iv, 20 mg/kg i.v., read-out: volume of distribution): 0.7 L/kg | dose excreted at 24 h ([11]; rat, urine, iv, 24 hr urine, read-out: urinary (renal) excretion (24hr)): ~58% | stability / decomposition of 30.1 ([6]; 10 µg/mL in isotonic saline and 100 mM potassium phosphate buffers pH 3, 7 and 9, room temperature, sampled 1, 2, 5, 7 days, HPLC): stable for at least seven days; also recorded: No decomposition | mortality and obvious signs of toxicity [12]: safely administered
